Entries after “also recorded” stand apart in the source; their conditions may differ.
Columns and labels:
NMOs [1] = assay: Microelectrode array (MEA) recording of whole organoids; format: cell-based, human; conditions: for suppression of electrical activity: APV 50 uM and CNQX 40 uM applied together, glutamate receptor inhibitors; for local (single electrode) firings / synchronous network activity (paired electrode spikes) / rhythmic, central pattern generator-like activity: NMDA and 5-HT applied together; for local (single electrode) firings / synchronous network activity (paired electrode spikes): day 50, FIG. 6G legend: 50 uM NMDA/40 uM 5-HT; for electrical activity triggered by NMDA/5-HT cocktail: cocktail of NMDA (10 uM) and 5-HT (40 uM), applied together
NMOs [2] = assay: Contraction analysis of neuromuscular organoids before and after curare; format: cell-based, human; conditions: curare 10 uM; before vs after treatment
Experimental: To investigate the functionality of NMJs, the contractile activity of NMOs was measured before and after treatment with Curare (10 uM), a blocker of AChRs.
Video segments of equal length were recorded using a bright-field microscope (DMI1, Leica) in 3 different regions of the same organoid using 20× zoom. To quantify muscle contractions, each movie was analyzed separately where each visible contraction was counted and then averaged for the whole organoid.
To analyze and map organoid muscular contraction, bright field time series images were automatically thresholded using ImageJ software to identify organoid border. A binary stack was created and contractile regions were visually identified. Regions of interest were defined and variations of organoid area (in pixel), used as a proxy of physical contraction, were plotted over the time series.

## N[C@@H](CCCP(=O)(O)O)C(=O)O [APV]
NMOs [1]
  suppression of electrical activity: reversibly suppressed nearly all electrical activity

## CN[C@H](CC(=O)O)C(=O)O [NMDA]
NMOs [1]
  local (single electrode) firings: increased single firings; also recorded: notable increase
  synchronous network activity (paired electrode spikes): increase in paired electrode spikes; also recorded: dramatic increase
  electrical activity triggered by NMDA/5-HT cocktail: instantaneously triggered strong activity
NMOs [1]; day 50 NMOs
  rhythmic, central pattern generator-like activity: central pattern generator-like activity; also recorded: became rhythmic; also recorded: produced rhythmic bursts of electrical activity

## curare
NMOs [1]; curare 10 uM added after acetylcholine 10 uM, day 50 NMOs
  block of acetylcholine-stimulated electrical activity: rapidly and reversibly blocked
NMOs [2]
  contraction of the skeletal muscles (contractile activity of NMOs): blocked the contraction; also recorded: organoid relaxation

## N#Cc1cc2[nH]c(=O)c(=O)[nH]c2cc1[N+](=O)[O-] [CNQX]
NMOs [1]
  suppression of electrical activity: reversibly suppressed nearly all electrical activity

## N[C@@H](CCC(=O)O)C(=O)O [glutamate]
NMOs [1]; acute glutamate 50 uM, day 30 and day 50 organoids
  increase of spontaneous electrical activity: approximately 12 fold

## NCCc1c[nH]c2ccc(O)cc12 [5-HT, Serotonin]
NMOs [1]
  local (single electrode) firings: increased single firings; also recorded: notable increase
  synchronous network activity (paired electrode spikes): increase in paired electrode spikes; also recorded: dramatic increase
  electrical activity triggered by NMDA/5-HT cocktail: instantaneously triggered strong activity
NMOs [1]; day 50 NMOs
  rhythmic, central pattern generator-like activity: central pattern generator-like activity; also recorded: became rhythmic; also recorded: produced rhythmic bursts of electrical activity

## NC1=N[C@H](O)[C@H]2[C@H]3O[C@]4(O)O[C@@H]([C@@H](O)[C@@]2(N1)[C@@H]4O)[C@]3(O)CO [tetrodotoxin]
NMOs [1]
  suppression of NMDA/5-HT-triggered activity: reversibly suppressed

## CC(=O)OCC[N+](C)(C)C [acetylcholine]
NMOs [1]; acetylcholine 10 uM stimulation, day 50 NMOs
  increase of electrical activity: approximately 10 fold

— patent US20220202872A1, “METHOD FOR GENERATING A THREE-DIMENSIONAL NEUROMUSCULAR ORGANOID IN VITRO” (MAX-DELBRÜCK-CENTRUM FÜR MOLEKULARE MEDIZIN IN DER …, priority 2020, published 2022)
